These results are taken from ChEMBL document CHEMBL5579851, “Synthesis and antifungal evaluation of novel triazole derivatives bearing a pyrazole-methoxyl moiety” (Eur J Med Chem, 2024).

Usually MIC stands for the lowest concentration that inhibits growth of the organism.

Converted amounts (≈) assume the structure as drawn. Some results are limits rather than exact numbers.

The first test deals with Candida parapsilosis. The experiment in a line: Antifungal activity against Candida parapsilosis 22019 assessed as inhibition of fungal growth incubated for 48 hrs by CLSI based broth microdilution assay. In kind it is functional. To be noted: Lodderomyces parapsilosis. (Dilution methods test growth across graded concentrations, often in twofold steps.)
For `C[C@@H](OCc1ccn(Cc2ccc([N+](=O)[O-])cc2)n1)[C@](O)(Cn1cncn1)c1ccc(F)cc1F`, the MIC was found to be 0.25 µg/mL (≈ 0.516 µM).

With `C[C@@H](OCc1ccn(Cc2ccc(Cl)cc2Cl)n1)[C@](O)(Cn1cncn1)c1ccc(F)cc1F`, the MIC is 0.25 µg/mL (≈ 0.492 µM).

As to `Cc1ccccc1Cn1ccc(CO[C@H](C)[C@](O)(Cn2cncn2)c2ccc(F)cc2F)n1`, the MIC stood at 0.5 µg/mL (≈ 1.1 µM).

As for `C[C@@H](OCc1ccn(Cc2c(Cl)cc(Cl)cc2Cl)n1)[C@](O)(Cn1cncn1)c1ccc(F)cc1F`, the MIC was 2 µg/mL (≈ 3.68 µM).

`C[C@@H](OCc1ccn(Cc2cc(Cl)ccc2Cl)n1)[C@](O)(Cn1cncn1)c1ccc(F)cc1F`: the MIC turned out to be 1 µg/mL (≈ 1.97 µM).

For the compound `C[C@@H](OCc1ccn(Cc2ccccc2F)n1)[C@](O)(Cn1cncn1)c1ccc(F)cc1F`, the MIC is 0.5 µg/mL (≈ 1.09 µM).

Another test deals with Candida tropicalis. The experiment in a line: Antifungal activity against Candida tropicalis 8915 assessed as inhibition of fungal growth incubated for 48 hrs by CLSI based broth microdilution assay. Format: functional.
Details: not given
On to `C[C@@H](OCc1ccn(Cc2ccc([N+](=O)[O-])cc2)n1)[C@](O)(Cn1cncn1)c1ccc(F)cc1F`, for which the MIC worked out at 0.5 µg/mL (≈ 1.03 µM).

For `C[C@@H](OCc1ccn(Cc2ccc(Cl)cc2Cl)n1)[C@](O)(Cn1cncn1)c1ccc(F)cc1F`, the MIC was 32 µg/mL (≈ 62.9 µM).

For `Cc1ccccc1Cn1ccc(CO[C@H](C)[C@](O)(Cn2cncn2)c2ccc(F)cc2F)n1`, the MIC was more than 64 µg/mL.

For `C[C@@H](OCc1ccn(Cc2c(Cl)cc(Cl)cc2Cl)n1)[C@](O)(Cn1cncn1)c1ccc(F)cc1F`, the MIC was 64 µg/mL (≈ 118 µM).

For `C[C@@H](OCc1ccn(Cc2cc(Cl)ccc2Cl)n1)[C@](O)(Cn1cncn1)c1ccc(F)cc1F`, the MIC is 32 µg/mL (≈ 62.9 µM).

Regarding `C[C@@H](OCc1ccn(Cc2ccccc2F)n1)[C@](O)(Cn1cncn1)c1ccc(F)cc1F`, the MIC is approximately 64 µg/mL (≈ 140 µM).

A further test deals with Nakaseomyces glabratus. The test is described as follows: Antifungal activity against Candida glabrata 537 assessed as inhibition of fungal growth incubated for 48 hrs by CLSI based broth microdilution assay. Format: functional.
Details: not given
With `C[C@@H](OCc1ccn(Cc2ccc([N+](=O)[O-])cc2)n1)[C@](O)(Cn1cncn1)c1ccc(F)cc1F`, the MIC was not above 0.125 µg/mL.

Take `C[C@@H](OCc1ccn(Cc2ccc(Cl)cc2Cl)n1)[C@](O)(Cn1cncn1)c1ccc(F)cc1F`: the MIC came out at 1 µg/mL (≈ 1.97 µM).

Consider `Cc1ccccc1Cn1ccc(CO[C@H](C)[C@](O)(Cn2cncn2)c2ccc(F)cc2F)n1`, for which the MIC worked out at 1 µg/mL (≈ 2.21 µM).

For the compound `C[C@@H](OCc1ccn(Cc2c(Cl)cc(Cl)cc2Cl)n1)[C@](O)(Cn1cncn1)c1ccc(F)cc1F`, the MIC came to 1 µg/mL (≈ 1.84 µM).

As for `C[C@@H](OCc1ccn(Cc2cc(Cl)ccc2Cl)n1)[C@](O)(Cn1cncn1)c1ccc(F)cc1F`, the MIC amounted to 0.5 µg/mL (≈ 0.984 µM).

For the compound `C[C@@H](OCc1ccn(Cc2ccccc2F)n1)[C@](O)(Cn1cncn1)c1ccc(F)cc1F`, the MIC is 0.25 µg/mL (≈ 0.547 µM).

The next test deals with Candida albicans. The test is described as follows: Antifungal activity against Candida albicans SC5314 assessed as inhibition of fungal growth incubated for 48 hrs by CLSI based broth microdilution assay.
Details: not given
In kind it is functional.
As to `C[C@@H](OCc1ccn(Cc2ccc([N+](=O)[O-])cc2)n1)[C@](O)(Cn1cncn1)c1ccc(F)cc1F`, the MIC was not above 0.125 µg/mL.

Turning to `C[C@@H](OCc1ccn(Cc2ccc(Cl)cc2Cl)n1)[C@](O)(Cn1cncn1)c1ccc(F)cc1F`, the MIC amounted to 0.25 µg/mL (≈ 0.492 µM).

For the compound `Cc1ccccc1Cn1ccc(CO[C@H](C)[C@](O)(Cn2cncn2)c2ccc(F)cc2F)n1`, the MIC was not above 0.125 µg/mL.

As for `C[C@@H](OCc1ccn(Cc2c(Cl)cc(Cl)cc2Cl)n1)[C@](O)(Cn1cncn1)c1ccc(F)cc1F`, the MIC was 0.25 µg/mL (≈ 0.461 µM).

On to `C[C@@H](OCc1ccn(Cc2cc(Cl)ccc2Cl)n1)[C@](O)(Cn1cncn1)c1ccc(F)cc1F`, for which the MIC amounted to 0.25 µg/mL (≈ 0.492 µM).

Consider `C[C@@H](OCc1ccn(Cc2ccccc2F)n1)[C@](O)(Cn1cncn1)c1ccc(F)cc1F`, for which the MIC is not above 0.125 µg/mL.

For another test, the system named is Cryptococcus neoformans. The test is described as follows: Antifungal activity against Cryptococcus neoformans 32609 assessed as inhibition of fungal growth incubated for 72 hrs by CLSI based broth microdilution assay.
Details: not given
In kind it is functional.
Take `C[C@@H](OCc1ccn(Cc2ccc([N+](=O)[O-])cc2)n1)[C@](O)(Cn1cncn1)c1ccc(F)cc1F`: the MIC was 0.5 µg/mL (≈ 1.03 µM).

For the compound `C[C@@H](OCc1ccn(Cc2ccc(Cl)cc2Cl)n1)[C@](O)(Cn1cncn1)c1ccc(F)cc1F`, the MIC was determined as 0.5 µg/mL (≈ 0.984 µM).

As for `Cc1ccccc1Cn1ccc(CO[C@H](C)[C@](O)(Cn2cncn2)c2ccc(F)cc2F)n1`, the MIC was found to be 0.5 µg/mL (≈ 1.1 µM).

With `C[C@@H](OCc1ccn(Cc2c(Cl)cc(Cl)cc2Cl)n1)[C@](O)(Cn1cncn1)c1ccc(F)cc1F`, the MIC was not above 0.125 µg/mL.

In the case of `C[C@@H](OCc1ccn(Cc2cc(Cl)ccc2Cl)n1)[C@](O)(Cn1cncn1)c1ccc(F)cc1F`, the MIC came out at 0.25 µg/mL (≈ 0.492 µM).

Regarding `C[C@@H](OCc1ccn(Cc2ccccc2F)n1)[C@](O)(Cn1cncn1)c1ccc(F)cc1F`, the minimum inhibitory concentration (MIC) amounted to 0.25 µg/mL (≈ 0.547 µM).

Another test concerns Pichia kudriavzevii. The experiment in a line: Antifungal activity against Candida krusei 4996 assessed as inhibition of fungal growth incubated for 48 hrs by CLSI based broth microdilution assay. Format: functional.
Details: not given
Take `C[C@@H](OCc1ccn(Cc2ccc([N+](=O)[O-])cc2)n1)[C@](O)(Cn1cncn1)c1ccc(F)cc1F`: the MIC worked out at 4 µg/mL (≈ 8.26 µM).

For the compound `C[C@@H](OCc1ccn(Cc2ccc(Cl)cc2Cl)n1)[C@](O)(Cn1cncn1)c1ccc(F)cc1F`, the MIC worked out at 4 µg/mL (≈ 7.87 µM).

For the compound `Cc1ccccc1Cn1ccc(CO[C@H](C)[C@](O)(Cn2cncn2)c2ccc(F)cc2F)n1`, the MIC is 8 µg/mL (≈ 17.6 µM).

Turning to `C[C@@H](OCc1ccn(Cc2c(Cl)cc(Cl)cc2Cl)n1)[C@](O)(Cn1cncn1)c1ccc(F)cc1F`, the MIC was 8 µg/mL (≈ 14.7 µM).

`C[C@@H](OCc1ccn(Cc2cc(Cl)ccc2Cl)n1)[C@](O)(Cn1cncn1)c1ccc(F)cc1F`: the minimum inhibitory concentration (MIC) came to 4 µg/mL (≈ 7.87 µM).

In the case of `C[C@@H](OCc1ccn(Cc2ccccc2F)n1)[C@](O)(Cn1cncn1)c1ccc(F)cc1F`, the MIC worked out at 8 µg/mL (≈ 17.5 µM).

In the next test the test system is Candida albicans. The test is described as follows: Antifungal activity against Candida albicans 10231 assessed as inhibition of fungal growth incubated for 48 hrs by CLSI based broth microdilution assay. In kind it is functional.
Details: not given
As to `C[C@@H](OCc1ccn(Cc2ccc([N+](=O)[O-])cc2)n1)[C@](O)(Cn1cncn1)c1ccc(F)cc1F`, the MIC is not above 0.125 µg/mL.

In the case of `C[C@@H](OCc1ccn(Cc2ccc(Cl)cc2Cl)n1)[C@](O)(Cn1cncn1)c1ccc(F)cc1F`, the MIC came to 0.25 µg/mL (≈ 0.492 µM).

Take `Cc1ccccc1Cn1ccc(CO[C@H](C)[C@](O)(Cn2cncn2)c2ccc(F)cc2F)n1`: the MIC turned out to be 0.25 µg/mL (≈ 0.551 µM).

In the case of `C[C@@H](OCc1ccn(Cc2c(Cl)cc(Cl)cc2Cl)n1)[C@](O)(Cn1cncn1)c1ccc(F)cc1F`, the MIC was 0.5 µg/mL (≈ 0.921 µM).

As to `C[C@@H](OCc1ccn(Cc2cc(Cl)ccc2Cl)n1)[C@](O)(Cn1cncn1)c1ccc(F)cc1F`, the MIC came to 0.5 µg/mL (≈ 0.984 µM).

Turning to `C[C@@H](OCc1ccn(Cc2ccccc2F)n1)[C@](O)(Cn1cncn1)c1ccc(F)cc1F`, the MIC was found to be 0.25 µg/mL (≈ 0.547 µM).
